The test deals with Prothrombin (Homo sapiens, UniProt P00734). The test is described as follows: Binding affinity against thrombin.

With `N=C(N)C[C@H]1CC[C@@H](NC(=O)[C@@H]2CCCN2C(=O)[C@@H](Cc2ccccc2)NS(=O)(=O)Cc2ccccc2)CC1`, the affinity, expressed as Ki, was 0.27 nM.

The term Ki denotes the equilibrium dissociation constant of an inhibitor or competing ligand from its target. A high value points to weaker binding.

(Values after ChEMBL document CHEMBL1132184, “Two-stage method for protein-ligand docking” (J Med Chem, 1999).)
